{
  "source": "patent US11994513B2",
  "about": "“Diagnostic and prognostic methods for estrogen-induced cancers” (The University of Newcastle, priority 2018, dated 2024)",
  "key": {"[1]": {"tested_on": "Ishikawa organoids", "assay": "3D organoid formation assay: colony size and proliferation (CellTiter-Glo 3D)", "assay_type": "cell-based, human", "description": "The human endometrial adenocarcinoma cell line Ishikawa (Sigma #99040201) was cultured in MEM (HyClone) medium supplemented with 5% heat-inactivated FBS (Bovogen Biologicals), 2 mmol/L L-glutamine (HyClone), and antibiotics (50 U/mL penicillin, 50 mg/L streptomycin; Gibco) in a humidified atmosphere at 37° C. containing 5% CO2. Cell line authentication was done by short tandem repeat (STR) DNA profiling method and mycoplasma contamination in cells was routinely conducted using MycoAlert™ Plus Mycoplasma detection kit (Lonza). 5,000 Ishikawa cells/well were seeded in triplicate in 100 μL medium onto 96-well tissue culture plates coated with a thin layer of reduced growth factor basement membrane extract (Cultrex® RGF BME: Trevigen) and were allowed to form organoids. After 24 hours, the organoids were subjected to desired hormonal treatments: 10 nmol/L estrogen ((β-Estradiol, Sigma #E8875) and 100 nmol/L progesterone (Medroxyprogesterone 17-acetate, Sigma #M1629). The culture medium containing desired hormone concentration was changed on every 48 hours. On day 7, colony size was measured and images were photographed using JuLI™ Stage Real-Time Cell History Recorder (NanoEnTek) in an incubator at 37° C. humidified with 5% CO2. 72 hours post-treatment, cells were incubated with CellTiter-Glo® 3D Reagent (Promega) for 30 minutes at room temperature and luminescence signal was recorded using the FLUOstar OPTIMA (BMG Labtech). Ishikawa 3D organoids were fixed in 4% paraformaldehyde (Electron Microscopy Sciences, ProSciTech) for 20 minutes and processed for immunofluorescence, as described previously (Sahoo et al, Oncotarget, 2017, 8:71400-17)."}, "[2]": {"tested_on": "ALPPL2 mRNA expression", "assay": "Quantitative real-time PCR of ALPPL2 mRNA in hormone-treated Ishikawa organoids", "assay_type": "cell-based, human", "settings": "FIG. 2C", "description": "(§1) 5,000 Ishikawa cells/well were seeded in triplicate in 100 μL medium onto 96-well tissue culture plates coated with a thin layer of reduced growth factor basement membrane extract (Cultrex® RGF BME: Trevigen) and were allowed to form organoids. After 24 hours, the organoids were subjected to desired hormonal treatments: 10 nmol/L estrogen ((β-Estradiol, Sigma #E8875) and 100 nmol/L progesterone (Medroxyprogesterone 17-acetate, Sigma #M1629). The culture medium containing desired hormone concentration was changed on every 48 hours. On day 7, colony size was measured and images were photographed using JuLI™ Stage Real-Time Cell History Recorder (NanoEnTek) in an incubator at 37° C. humidified with 5% CO2. 72 hours post-treatment, cells were incubated with CellTiter-Glo® 3D Reagent (Promega) for 30 minutes at room temperature and luminescence signal was recorded using the FLUOstar OPTIMA (BMG Labtech). […]\nTotal RNA was isolated from estrogen or progesterone treated mouse uterus and Ishikawa cells using RNeasy Mini kit (Qiagen) following manufacturer's instructions. […] Quantitative real-time PCR (Q-PCR) was performed using RT^2 SYBR Green ROX qPCR Mastermix (Qiagen) on a 7900 HT FAST Thermocycler (Applied Biosystems) through a pre-incubation step, and 40 amplification cycles (including denaturation, annealing and extension segments). […]"}, "[3]": {"tested_on": "mice uteri", "assay": "Hormone pellet treatment of ovariectomized mice: uterine histology and ALPPL2 immunohistochemistry", "assay_type": "in vivo, C57BL/6 mice"}, "[4]": {"tested_on": "ALPPL2 protein", "assay": "Western blot of ALPPL2 protein in hormone-treated Ishikawa cells and organoids", "assay_type": "cell-based, human", "settings": "Ishikawa cells and organoids treated with E2 and/or P4, FIGS. 2D and 2E", "description": "as §1\nHuman endometrial cancer samples, mouse uterine tissue, and Ishikawa cells were lysed in ice-cold RIPA (radioimmunoprecipitation assay) buffer (50 mmol/L Tris-HCl pH 7.5, 150 mmol/L NaCl, 1% NP-40, 0.5% Sodium deoxycholate, 0.1% SDS) containing protease and phosphatase inhibitors (Sigma). […] The membrane was washed again in TBS-T, developed using a chemiluminescent substrate (Millipore) for detection of HRP and the protein bands were detected by chemiluminescence (Fujifilm LAS-4000). […]"}},
  "data": [
    {"compound": "CC(=O)[C@H]1CC[C@H]2[C@@H]3CCC4=CC(=O)CC[C@]4(C)[C@H]3CC[C@]12C", "note": "[P4, progesterone]", "values": [
      {"measurement": "mitogenic action of E2 on Ishikawa organoids (size and proliferation)", "setting": "[1]; P4 100 nmol/L with E2 10 nmol/L, FIGS. 2A and 2B", "result": "counterbalanced"},
      {"measurement": "effect on E2-induced ALPPL2 mRNA upregulation", "setting": "[2]; P4 100 nmol/L with E2 10 nmol/L", "result": "inhibited this effect"},
      {"measurement": "effect on E2-induced ALPPL2 expression in uterus (immunohistochemical analysis)", "setting": "[3]; E2 and P4 pellets for 3 months, FIG. 3A", "result": "attenuated the effect of E2"}
    ]},
    {"compound": "β-Estradiol [E2]", "values": [
      {"measurement": "proliferation of Ishikawa organoids", "setting": "[1]; E2 10 nmol/L, 3D culture, 72 hours post-treatment, FIG. 2B", "result": "increased"},
      {"measurement": "size of Ishikawa organoids", "setting": "[1]; E2 10 nmol/L, 3D culture, day 7, FIG. 2A", "result": "increased"},
      {"measurement": "ALPPL2 mRNA expression", "setting": "[2]; E2 treated organoids, 10 nmol/L", "result": "significantly upregulated"},
      {"measurement": "ALPPL2 protein expression (western blot, total cell lysate)", "setting": "[4]", "result": "Overexpression of ALPPL2"},
      {"measurement": "ALPPL2 expression in uterus (immunohistochemical analysis)", "setting": "[3]; E2 pellet for 3 months, FIG. 3A", "result": "increase in ALPPL2 expression"},
      {"measurement": "endometrial hyperplasia (histological analysis)", "setting": "[3]; E2 pellet for 3 months, compared to E2 and P4 treated uteri, data not shown", "result": "increased endometrial hyperplasia"}
    ]}
  ]
}
